According to patent US20080004253A1, “Thiazolopyrimidine modulators of TRPV1” (priority 2006, published 2008):

What was measured:
[1] = biological target: T1, human TRPV1 (Homo sapiens, UniProt Q8NER1); experiment: Functional assay: block of capsaicin-induced Ca2+ influx, human assay (hTRPV1/HEK293, FLIPR); format: cell-based; conditions: hTRPV1/HEK293 cells, 150 nM capsaicin challenge, Fluo-3 fluorescence; mean; > value = solubility limit in assay medium
T1 construct: expressed in transfected cells; host or cells: HEK293 (hTRPV1/HEK293), zeocin selection
Outline: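 HEK293 cells stably expressing human TRPV1, fluo3-loaded, preincubated 30 min with compound (serial 3-fold dilutions from 10 μM, duplicate) in 20 μM Ca2+ buffer. Capsaicin response taken as fluo3 fluorescence change before vs 100 s after agonist; IC50 by non-linear regression, mean values; free base or TFA salt.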

[2] = biological target: T2, rat TRPV1 (Rattus norvegicus, UniProt O35433); experiment: Functional assay: block of capsaicin-induced Ca2+ influx, rat assay (rTRPV1/HEK293, FLIPR); format: cell-based; conditions: rTRPV1/HEK293 cells, capsaicin challenge, Fluo-3 fluorescence; mean; > value = solubility limit in assay medium
T2 construct: expressed in transfected cells; host or cells: HEK293 (rTRPV1/HEK293), geneticin selection
Outline: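 HEK293 cells expressing rat TRPV1, loaded with fluo3 and preincubated 30 min with compound in 20 μM Ca2+ buffer before capsaicin challenge. Block read as fluo3 fluorescence change over 100 s after agonist, 3-fold series from 10 μM in duplicate. IC50 by non-linear regression, mean values.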

T2 sequence (O35433 whole entry): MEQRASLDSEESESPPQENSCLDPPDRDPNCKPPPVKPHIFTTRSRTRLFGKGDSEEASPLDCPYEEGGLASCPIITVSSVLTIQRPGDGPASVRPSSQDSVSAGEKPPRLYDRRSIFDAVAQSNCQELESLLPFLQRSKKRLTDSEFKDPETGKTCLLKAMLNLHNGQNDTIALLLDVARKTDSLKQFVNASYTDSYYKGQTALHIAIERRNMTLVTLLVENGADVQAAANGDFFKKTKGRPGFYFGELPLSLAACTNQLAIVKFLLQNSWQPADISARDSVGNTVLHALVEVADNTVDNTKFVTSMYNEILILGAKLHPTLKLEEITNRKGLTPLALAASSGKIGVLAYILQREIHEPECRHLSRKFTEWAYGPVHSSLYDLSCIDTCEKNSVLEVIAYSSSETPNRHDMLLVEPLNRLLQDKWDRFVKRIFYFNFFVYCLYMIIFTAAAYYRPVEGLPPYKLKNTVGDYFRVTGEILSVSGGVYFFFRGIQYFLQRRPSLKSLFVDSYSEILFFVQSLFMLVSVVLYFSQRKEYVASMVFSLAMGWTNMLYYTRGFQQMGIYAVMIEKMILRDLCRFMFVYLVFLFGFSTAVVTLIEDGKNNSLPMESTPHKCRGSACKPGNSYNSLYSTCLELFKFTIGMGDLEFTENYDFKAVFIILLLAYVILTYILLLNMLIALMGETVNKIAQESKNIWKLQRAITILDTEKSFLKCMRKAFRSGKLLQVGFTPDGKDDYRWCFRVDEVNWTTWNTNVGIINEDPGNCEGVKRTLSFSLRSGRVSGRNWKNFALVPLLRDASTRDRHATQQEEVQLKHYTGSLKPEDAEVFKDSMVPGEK
T1 sequence (Q8NER1 whole entry): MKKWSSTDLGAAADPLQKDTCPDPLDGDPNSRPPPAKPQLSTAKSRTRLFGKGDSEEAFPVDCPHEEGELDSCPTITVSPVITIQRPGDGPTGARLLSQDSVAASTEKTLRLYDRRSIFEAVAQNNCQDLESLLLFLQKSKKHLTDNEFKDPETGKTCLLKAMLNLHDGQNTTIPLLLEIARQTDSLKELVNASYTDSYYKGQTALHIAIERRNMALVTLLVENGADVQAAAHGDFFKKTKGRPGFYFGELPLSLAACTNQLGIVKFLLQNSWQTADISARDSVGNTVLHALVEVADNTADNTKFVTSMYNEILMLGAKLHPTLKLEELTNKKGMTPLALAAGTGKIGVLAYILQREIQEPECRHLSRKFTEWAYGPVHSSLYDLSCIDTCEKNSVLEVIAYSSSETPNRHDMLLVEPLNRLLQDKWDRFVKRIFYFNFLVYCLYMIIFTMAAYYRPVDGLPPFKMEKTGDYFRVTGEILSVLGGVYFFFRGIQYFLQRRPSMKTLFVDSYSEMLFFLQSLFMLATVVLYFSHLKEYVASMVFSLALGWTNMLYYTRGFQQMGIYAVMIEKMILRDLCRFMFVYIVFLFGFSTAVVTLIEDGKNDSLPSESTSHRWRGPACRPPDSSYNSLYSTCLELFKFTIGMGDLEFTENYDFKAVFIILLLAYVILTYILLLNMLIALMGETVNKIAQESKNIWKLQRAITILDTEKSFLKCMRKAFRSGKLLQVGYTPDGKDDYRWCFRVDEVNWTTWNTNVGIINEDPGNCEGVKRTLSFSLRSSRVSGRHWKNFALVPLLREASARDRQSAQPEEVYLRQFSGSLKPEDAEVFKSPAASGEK

| IC50 [1] [nM] | IC50 [2] [nM] | Structure (SMILES) |
| --- | --- | --- |
| 1 | 1 | Cc1nc(Nc2ccc(S(=O)(=O)N3CCCC3)cc2)c2nc(Nc3c(Cl)cccc3Cl)sc2n1 [Example 73, N^2-(2,6-Dichloro-phenyl)-5-methyl-N^7-[4-(pyrrolidine-1-sulfonyl)-phenyl]-thiazolo[5,4-d]pyrimidine-2,7-diamine] |
| 1420 | 440 | CN1CCN(CCCNc2nc(Nc3ccc(C(F)(F)F)cc3)c3nc(Nc4c(Cl)cccc4Cl)sc3n2)CC1 [Example 153, N^2-(2,6-Dichloro-phenyl)-N^5-[3-(4-methyl-piperazin-1-yl)-propyl]-N^7-(4-trifluoromethyl-phenyl)-thiazolo[5,4-d]pyrimidine-2,5,7-diamine] |
| 30 | 9 | FC(F)(F)c1ccc(Nc2ncnc3sc(Nc4c(Cl)cccc4C(F)(F)F)nc23)cc1 [Example 18, N^2-(2-Chloro-6-trifluoromethyl-phenyl)-N^7-(4-trifluoromethyl-phenyl)-thiazolo[5,4-d]pyrimidine-2,7-diamine] |
| > 20000 | > 20000 | COc1nc(Nc2ccc(C(F)(F)F)cc2)c2nc(Nc3c(Cl)cccc3Cl)sc2n1 [Example 55, N^2-(2,6-Dichloro-phenyl)-5-methoxy-N^7-(4-trifluoromethyl-phenyl)-thiazolo[5,4d]pyrimidine-2,7-diamine] |
| > 20000 | > 20000 | Cc1cccc(C)c1Nc1nc2c(Nc3ccc(C(F)(F)F)cn3)ncnc2s1 [Example 176, N^2-(2,6-Dimethyl-phenyl)-N^7-(5-trifluoromethyl-pyridin-2-yl)-thiazolo[5,4-d]pyrimidine-2,7-diamine] |
| 169 | 95 | Cc1noc(C)c1Nc1nc2c(Nc3ccc(C(C)(C)C#N)cc3)ncnc2s1 [Example 223, 2-[4-({2-[(3,5-Dimethylisoxazol-4-yl)amino][1,3]thiazolo[5,4-d]pyrimidin-7-yl}amino)phenyl]-2-methylpropanenitrile] |
| 205 | 25 | CC1CCCCN1c1nc(Nc2ccc(C(F)(F)F)c(Cl)c2)c2nc(Nc3c(Cl)cccc3Cl)sc2n1 (racemic) [Example 136, (racemic)-N^7-(3-Chloro-4-trifluoromethyl-phenyl)-N^2-(2,6-dichloro-phenyl)-5-(2-methyl-piperidin-1-yl)-thiazolo[5,4-d]pyrimidine-2,7-diamine] |
| > 20000 | 17300 | Cc1cccc(C)c1Nc1nc2c(Nc3ccc(C(N)=O)cc3)ncnc2s1 [Example 169, 4-[2-(2,6-Dimethyl-phenylamino)-thiazolo[5,4-d]pyrimidin-7-ylamino]-benzamide] |
| 57 | 58 | Cc1nc(Nc2ccc(C(F)(F)F)cc2)c2nc(Nc3ccccc3Cl)sc2n1 [Example 202, N^2-(2-Chloro-phenyl)-5-methyl-N^7-(4-trifluoromethyl-phenyl)-thiazolo[5,4-d]pyrimidine-2,7-diamine] |
| 8 | 4 | Cc1ccccc1Nc1nc2c(Nc3ccc(S(=O)(=O)N4CCOCC4)cc3)ncnc2s1 [Example 217, N^2-(2-Methylphenyl)-N^7-[4-(morpholin-4-ylsulfonyl)phenyl][1,3]thiazolo[5,4-d]pyrimidine-2,7-diamine] |
| 9740 | > 20000 | CS(=O)(=O)c1ccc(Nc2ncnc3sc(Nc4ccccc4S(C)(=O)=O)nc23)cc1 [Example 198, N^2-(2-Methanesulfonyl-phenyl)-N^7-(4-methanesulfonyl-phenyl)-thiazolo[5,4-d]pyrimidine-2,7-diamine] |
| > 6670 | > 6670 | Cc1cccc(C)c1Nc1nc2c(NCc3ccc(Cl)c(Cl)c3)ncnc2s1 [Example 39, N^7-(3,4-Dichloro-benzyl)-N^2-(2,6-dimethyl-phenyl)-thiazolo[5,4-d]pyrimidine-2,7-diamine] |
| 1080 | 271 | Cc1noc(C)c1Nc1nc2c(Nc3ccc(S(=O)(=O)N4CCOCC4)cc3)ncnc2s1 [Example 221, N^2-(3,5-Dimethylisoxazol-4-yl)-N^7-[4-(morpholin-4-ylsulfonyl)phenyl][1,3]thiazolo[5,4-d]pyrimidine-2,7-diamine] |
| ≥ 6670 | ≥ 6670 | Cc1nc(Nc2ccc(C(F)(F)F)cc2)c2nc(Nc3ncccc3C)sc2n1 [Example 211, 5-Methyl-N^2-(3-methyl-pyridin-2-yl)-N^7-(4-trifluoromethyl-phenyl)-thiazolo[5,4-d]pyrimidine-2,7-diamine] |
| 31 | 32 | CSc1ccc(Nc2nc(C)nc3sc(Nc4c(Cl)cccc4Cl)nc23)cn1 [Example 185, N^2-(2,6-Dichloro-phenyl)-5-methyl-N^7-(6-methylsulfanyl-pyridin-3-yl)-thiazolo[5,4-d]pyrimidine-2,7-diamine] |
| 139 | 71 | COC(=O)C(C)(C)c1ccc(Nc2ncnc3sc(Nc4c(Cl)cccc4Cl)nc23)cc1 [Example 229, Methyl 2-[4-({2-[(2,6-dichlorophenyl)amino][1,3]thiazolo[5,4-d]pyrimidin-7-yl}amino)phenyl]-2-methylpropanoate] |
| > 6670 | > 6670 | Cc1nc(Nc2ccc(N(S(C)(=O)=O)S(C)(=O)=O)cc2)c2nc(Nc3c(Cl)cccc3Cl)sc2n1 [Example 173, N-{4-[2-(2,6-Dichloro-phenylamino)-5-methyl-thiazolo[5,4-d]pyrimidin-7-ylamino]-phenyl}-dimethanesulfonamide] |
| 2 | 1 | Cc1nc(Nc2ccc(S(C)(=O)=O)cc2)c2nc(Nc3c(Cl)cccc3Cl)sc2n1 [Example 78, N^2-(2,6-Dichloro-phenyl)-N^7-(4-methanesulfonyl-phenyl)-5-methyl-thiazolo[5,4-d]pyrimidine-2,7-diamine] |
| 11 | 1 | Cc1cccc(Cl)c1Nc1nc2c(Nc3ccc(C(F)(F)F)cc3)ncnc2s1 [Example 14, N^2-(2-Chloro-6-methyl-phenyl)-N^7-(4-trifluoromethyl-phenyl)-thiazolo[5,4-d]pyrimidine-2,7-diamine] |
| 1 | 1 | OCc1cc(Cl)c(Nc2nc3c(Nc4ccc(C(F)(F)F)cc4)ncnc3s2)c(Cl)c1 [Example 242, {3,5-Dichloro-4-[7-(4-trifluoromethyl-phenylamino)-thiazolo[5,4-d]pyrimidin-2-ylamino]-phenyl}-methanol] |
| 2 | 1 | O=S(=O)(c1ccc(Nc2ncnc3sc(Nc4c(Cl)cccc4Cl)nc23)cc1)N1CCOCC1 [Example 80, N^2-(2,6-Dichloro-phenyl)-N^7-[4-(morpholine-4-sulfonyl)-phenyl]-thiazolo[5,4-d]pyrimidine-2,7-diamine] |
| > 6670 | 2040 | Cc1cccc(C)c1Nc1nc2c(NC3Cc4ccccc4C3)ncnc2s1 [Example 41, N^2-(2,6-Dimethyl-phenyl)-N^7-indan-2-yl-thiazolo[5,4-d]pyrimidine-2,7-diamine] |
| 271 | 128 | Cc1ccc(Nc2nc(C)nc3sc(Nc4c(C)cccc4C)nc23)cc1 [Example 138, N^2-(2,6-Dimethyl-phenyl)-5-methyl-N^7-p-tolyl-thiazolo[5,4-d]pyrimidine-2,7-diamine] |
| 170 | 87 | CC1CCCN1c1nc(Nc2ccc(C(F)(F)F)c(Cl)c2)c2nc(Nc3c(Cl)cccc3Cl)sc2n1 (racemic) [Example 130, (racemic)-N^7-(3-Chloro-4-trifluoromethyl-phenyl)-N^2-(2,6-dichloro-phenyl)-5-(2-methyl-pyrrolidin-1-yl)-thiazolo[5,4-d]pyrimidine-2,7-diamine] |
| > 6670 | > 6670 | Cc1ccc(CNc2ncnc3sc(Nc4c(C)cccc4C)nc23)o1 [Example 47, N^2-(2,6-Dimethyl-phenyl)-N^7-(5-methyl-furan-2-ylmethyl)-thiazolo[5,4-d]pyrimidine-2,7-diamine] |
| 63 | 33 | FC(F)(F)c1ccc(Nc2nc(N3CCCCC3)nc3sc(Nc4c(Cl)cccc4Cl)nc23)cc1 [Example 54, N^2-(2,6-Dichloro-phenyl)-5-piperidin-1-yl-N^7-(4-trifluoromethyl-phenyl)-thiazolo[5,4-d]pyrimidine-2,7-diamine] |
| 13 | 5 | Cc1cccc(Cl)c1Nc1nc2c(Nc3ccc(C(F)(F)F)nc3)ncnc2s1 [Example 15, N^2-(2-Chloro-6-methyl-phenyl)-N^7-(6-trifluoromethyl-pyridin-3-yl)-thiazolo[5,4-d]pyrimidine-2,7-diamine] |
| 4 | 2 | Cc1nc(Nc2ccc(C(C)C)cc2)c2nc(Nc3c(Cl)cccc3Cl)sc2n1 [Example 84, N^2-(2,6-Dichloro-phenyl)-N^7-(4-isopropyl-phenyl)-5-methyl-thiazolo[5,4-d]pyrimidine-2,7-diamine] |
| 67 | 16 | Cc1cccc(C)c1Nc1nc2c(Nc3ccc(SC(F)(F)F)cc3)ncnc2s1 [Example 40, N^2-(2,6-Dimethyl-phenyl)-N^7-(4-trifluoromethylsulfanyl-phenyl)-thiazolo[5,4-d]pyrimidine-2,7-diamine] |
| 1970 | 313 | Cc1ccc(Nc2ncnc3sc(Nc4c(C)cccc4C)nc23)c(O)c1 [Example 158, 2-[2-(2,6-Dimethyl-phenylamino)-thiazolo[5,4-d]pyrimidin-7-ylamino]-5-methyl-phenol] |
